Measured values published in ChEMBL document CHEMBL4706569, “Hydroxy-corrole and its gallium(III) complex as new photosensitizer for photodynamic therapy against breast carcinoma” (Eur J Med Chem, 2020).
pIC50: −log10 of the molar value. Activity calls are given as the source filed them. No cut-off for these calls is given here.

Legend:
[1] = Dark toxicity in mouse 4T1 cells assessed as reduction in cell viability by MTT assay; type: cell-based
[2] = Absorption property of the compound in DMF assessed as soret band absorption wavelength at 1 uM by UV-visible spectrophotometric method; type: physicochemical
[3] = Phototoxicity index, ratio of IC50 for cytotoxicity against HUVEC measured under dark condition to IC50 for phototoxicity against HUVEC upon LED light irradiation; settings: human, read-out: Ratio IC50
[4] = Absorption property of the compound in DMF assessed as Q band absorption wavelength at 1 uM by UV-visible spectrophotometric method; type: physicochemical
[5] = Induction of singlet oxygen generation in DMF solution assessed as singlet oxygen quantum yield at 1 uM irradiated with 625 +/- 2 nanometer laser light by DPBF-based assay; type: functional
[6] = Phototoxicity index, ratio of IC50 for cytotoxicity against mouse 4T1 cells measured under dark condition to IC50 for phototoxicity against mouse 4T1 cells upon LED light irradiation
[7] = Absorption property of the compound in DMF assessed as soret band molar extinction coefficient at 1 uM by UV-visible spectrophotometric method; type: physicochemical
[8] = Absorption property of the compound in DMF assessed as Q band molar extinction coefficient at 1 uM by UV-visible spectrophotometric method; type: physicochemical
[9] = Absorption property of the compound in DMF assessed as soret band molar attenuation coefficient at 1 uM by UV-visible spectrophotometric method; type: physicochemical
[10] = Phototoxicity index, ratio of IC50 for cytotoxicity against human MDA-MB-231 cells measured under dark condition to IC50 for phototoxicity against human MDA-MB-231 cells upon LED light irradiation
[11] = Dark toxicity in human MDA-MB-231 cells assessed as reduction in cell viability by MTT assay; type: cell-based
HUVEC = experiment: Phototoxicity against HUVEC assessed as reduction in cell viability preincubated for 4 hrs followed by irradiation with 0.3 W/cm2 of 625 +/- 2 nanometer LED light for 1 hr and measured after 42 hrs by MTT assay; type: cell-based; settings: Homo sapiens, light or radiation study
MDA-MB-231 [12] = experiment: Phototoxicity against human MDA-MB-231 cells assessed as reduction in cell viability preincubated for 4 hrs followed by irradiation with 0.3 W/cm2 of 625 +/- 2 nanometer LED light for 1 hr and measured after 42 hrs by MTT assay; type: functional, cell-based; settings: MDA-MB-231, light or radiation study
4T1 = experiment: Phototoxicity against mouse 4T1 cells assessed as reduction in cell viability preincubated for 4 hrs followed by irradiation with 0.3 W/cm2 of 625 +/- 2 nanometer LED light for 1 hr and measured after 42 hrs by MTT assay; type: functional, cell-based; settings: 4T1, light or radiation study
[13] = Selectivity index, ratio of IC50 for HUVEC in presence of light irradiation to IC50 for human MDA-MB-231 cells in presence of light irradiation; type: toxicity; settings: HUVEC and MDA-MB-231 cells, read-out: Ratio IC50
[14] = Absorption property of the compound in DMF assessed as soret band wavelength molar absorption coefficient at 1 uM by UV-visible spectrophotometric method; type: physicochemical
[15] = Dark toxicity in HUVEC assessed as reduction in cell viability by MTT assay; type: cell-based; settings: human
MDA-MB-231 [16] = experiment: Induction of apoptosis in human MDA-MB-231 cells assessed as necrotic cells at 2.5 uM preincubated for 4 hrs followed by 625 +/- 2 nanometer LED light irradiation for 1 hr and measured after 18 hrs by annexin V-FITC/PI based flow cytometric analysis (reference value: 0.41 %); type: functional; settings: time 23 hrs
[17] = Drug uptake in human MDA-MB-231 cells at 10 uM by flow cytometric analysis; type: ADME, cell-based; settings: mda-mb-231, 10 µM, TDE = time-dependent effect
MDA-MB-231 [18] = experiment: Induction of ROS generation in human MDA-MB-231 cells at 2.5 uM preincubated for 4 hrs followed by 625 +/- 2 nanometer LED light irradiation for 1 hr and measured after 18 hrs by DCFH-DA staining based fluorescence microscopy; type: functional, cell-based; settings: time 23.0 hrs
MDA-MB-231 [19] = experiment: Induction of cell cycle arrest in human MDA-MB-231 cells assessed as accumulation at sub-G1 phase at 5 uM measured after 24 hrs under dark condition by RNase A/propidium iodide staining based flow cytometry analysis (reference value: 2.56 %); type: functional
MDA-MB-231 [20] = experiment: Induction of mitochondrial depolarization in human MDA-MB-231 cells at 2.5 uM preincubated for 4 hrs followed by 625 +/- 2 nanometer LED light irradiation for 1 hr and measured after 18 hrs by JC1 staining based fluorescence microscopy; type: functional, cell-based; settings: time 23.0 hrs
MDA-MB-231 [21] = experiment: Induction of apoptosis in human MDA-MB-231 cells assessed as late apoptotic cells at 2.5 uM under dark condition by annexin V-FITC/PI based flow cytometric analysis (reference value: 0.67 %); type: functional
MDA-MB-231 [22] = experiment: Induction of apoptosis in human MDA-MB-231 cells assessed as viable cells at 2.5 uM under dark condition by annexin V-FITC/PI based flow cytometric analysis (reference value: 99.0 %); type: functional; settings: read-out: Activity
MDA-MB-231 [23] = experiment: Induction of mitochondrial depolarization in human MDA-MB-231 cells at 2.5 uM in dark by JC1 staining based fluorescence microscopy; type: functional, cell-based
MDA-MB-231 [24] = experiment: Induction of apoptosis in human MDA-MB-231 cells assessed as viable cells at 2.5 uM preincubated for 4 hrs followed by 625 +/- 2 nanometer LED light irradiation for 1 hr and measured after 18 hrs by annexin V-FITC/PI based flow cytometric analysis (reference value: 98.0 %); type: functional; settings: MDA-MB-231, light or radiation study, time 23 hrs, read-out: Activity
MDA-MB-231 [25] = experiment: Induction of apoptosis in human MDA-MB-231 cells assessed as late apoptotic cells at 2.5 uM preincubated for 4 hrs followed by 625 +/- 2 nanometer LED light irradiation for 1 hr and measured after 18 hrs by annexin V-FITC/PI based flow cytometric analysis (reference value: 1.34 %); type: functional; settings: time 23 hrs
MDA-MB-231 [26] = experiment: Induction of cell cycle arrest in human MDA-MB-231 cells assessed as accumulation at G2 phase at 5 uM preincubated with 625 +/- 2 nanometer LED light irradiation for 1 hrs and measured after 24 hrs by RNase A/propidium iodide staining based flow cytometry analysis (reference value: 22.1 %); type: functional; settings: time 25 hrs
MDA-MB-231 [27] = experiment: Induction of apoptosis in human MDA-MB-231 cells assessed as early apoptotic cells at 2.5 uM preincubated for 4 hrs followed by 625 +/- 2 nanometer LED light irradiation for 1 hr and measured after 18 hrs by annexin V-FITC/PI based flow cytometric analysis (reference value: 0.27 %); type: functional; settings: time 23 hrs
MDA-MB-231 [28] = experiment: Induction of cell cycle arrest in human MDA-MB-231 cells assessed as accumulation at G1 phase at 5 uM measured after 24 hrs under dark condition by RNase A/propidium iodide staining based flow cytometry analysis (reference value: 47.5 %); type: functional
MDA-MB-231 [29] = experiment: Induction of cell cycle arrest in human MDA-MB-231 cells assessed as accumulation at G2 phase at 5 uM measured after 24 hrs under dark condition by RNase A/propidium iodide staining based flow cytometry analysis (reference value: 24.4 %); type: functional
MDA-MB-231 [30] = experiment: Induction of cell cycle arrest in human MDA-MB-231 cells assessed as accumulation at S phase at 5 uM measured after 24 hrs under dark condition by RNase A/propidium iodide staining based flow cytometry analysis (reference value: 24.8 %); type: functional
MDA-MB-231 [31] = experiment: Induction of apoptosis in human MDA-MB-231 cells assessed as necrotic cells at 2.5 uM under dark condition by annexin V-FITC/PI based flow cytometric analysis (reference value: 0.36 %); type: functional
MDA-MB-231 [32] = experiment: Induction of cell cycle arrest in human MDA-MB-231 cells assessed as accumulation at G1 phase at 5 uM preincubated with 625 +/- 2 nanometer LED light irradiation for 1 hrs and measured after 24 hrs by RNase A/propidium iodide staining based flow cytometry analysis (reference value: 43.6 %); type: functional; settings: time 25 hrs
MDA-MB-231 [33] = experiment: Induction of cell cycle arrest in human MDA-MB-231 cells assessed as accumulation at sub-G1 phase at 5 uM preincubated with 625 +/- 2 nanometer LED light irradiation for 1 hrs and measured after 24 hrs by RNase A/propidium iodide staining based flow cytometry analysis (reference value: 3.93 %); type: functional; settings: time 25 hrs
MDA-MB-231 [34] = experiment: Induction of cell cycle arrest in human MDA-MB-231 cells assessed as accumulation at S phase at 5 uM preincubated with 625 +/- 2 nanometer LED light irradiation for 1 hrs and measured after 24 hrs by RNase A/propidium iodide staining based flow cytometry analysis (reference value: 29.0 %); type: functional; settings: time 25 hrs
[35] = Drug uptake in human MDA-MB-231 cells at 10 uM incubated for 4 hrs by Hoechst 33342 staining based fluorescence microscopy; type: ADME, cell-based; settings: mda-mb-231, 4 h
[36] = Drug localization in lysosome of human MDA-MB-231 cells at 20 uM incubated for 4 hrs by Lyso-tracker dye based confocal laser scanning microscopy; type: ADME, subcellular; settings: mda-mb-231, 4 h
MDA-MB-231 [37] = experiment: Induction of ROS generation in human MDA-MB-231 cells at 2.5 uM in dark by DCFH-DA staining based fluorescence microscopy; type: functional, cell-based
MDA-MB-231 [38] = experiment: Induction of apoptosis in human MDA-MB-231 cells assessed as early apoptotic cells at 2.5 uM under dark condition by annexin V-FITC/PI based flow cytometric analysis (reference value: 0 %); type: functional
[39] = Drug localization in mitochondria of human MDA-MB-231 cells at 20 uM incubated for 4 hrs by Mito-tracker dye based confocal laser scanning microscopy; type: ADME; settings: mda-mb-231, 4 h

Oc1ccccc1-c1c2nc(c(-c3c(F)c(F)c(F)c(F)c3F)c3ccc([nH]3)c3ccc([nH]3)c(-c3c(F)c(F)c(F)c(F)c3F)c3ccc1[nH]3)C=C2
pIC50 [1]: < 4.00
Activity [2]: 425 nm
selectivity ratio [3]: > 21.1
Activity [4]: 629 nm
Activity [5]: 0.45
Ratio IC50 [6]: >217.39
Activity [7]: 5.11 log
Activity [8]: 4.57 log
Activity [9]: 5.08 log
Ratio IC50 [10]: 8.75
pIC50 [11]: 4.29
pIC50 (HUVEC): 5.32
pIC50 (MDA-MB-231 [12]): 5.24
pIC50 (4T1): 6.34
selectivity ratio [13]: 0.82
Activity [14]: 441 nm
pIC50 [15]: < 4.00

Oc1cccc(-c2c3nc(c(-c4c(F)c(F)c(F)c(F)c4F)c4ccc([nH]4)c4ccc([nH]4)c(-c4c(F)c(F)c(F)c(F)c4F)c4ccc2[nH]4)C=C3)c1
pIC50 [1]: < 4.00
Activity [2]: 428 nm
selectivity ratio [3]: > 112
Activity [4]: 633 nm
Activity [5]: 0.46
Ratio IC50 [6]: >175.44
Activity [7]: 5.12 log
Activity [8]: 4.61 log
Activity [9]: 5.1 log
Ratio IC50 [10]: >60.98
pIC50 [11]: < 4.00
pIC50 (HUVEC): 6.05
pIC50 (MDA-MB-231 [12]): 5.79
pIC50 (4T1): 6.24
selectivity ratio [13]: 0.54
Activity [14]: 443 nm
pIC50 [15]: < 4.00

Oc1ccc(-c2c3nc(c(-c4c(F)c(F)c(F)c(F)c4F)c4ccc([nH]4)c4ccc([nH]4)c(-c4c(F)c(F)c(F)c(F)c4F)c4ccc2[nH]4)C=C3)cc1
Activity (MDA-MB-231 [16]): 5.29%
Drug uptake [17]: Tde
Activity (MDA-MB-231 [18]): Active
Activity (MDA-MB-231 [19]): 2.84%
pIC50 [1]: < 4.00
Activity [2]: 427 nm
Activity (MDA-MB-231 [20]): Active
Activity (MDA-MB-231 [21]): 1.01%
viability at 2.5 µM (MDA-MB-231 [22]): 98.3%
Activity (MDA-MB-231 [23]): inactive
viability at 2.5 µM (MDA-MB-231 [24]): 64.5%
selectivity ratio [3]: > 10.9
Activity [4]: 633 nm
Activity (MDA-MB-231 [25]): 30.1%
Activity (MDA-MB-231 [26]): 17.5%
Activity (MDA-MB-231 [27]): 0.095%
Activity (MDA-MB-231 [28]): 46.7%
Activity [5]: 0.55
Activity (MDA-MB-231 [29]): 26.1%
Activity (MDA-MB-231 [30]): 23.2%
Ratio IC50 [6]: >333.33
Activity [7]: 5.12 log
Activity [8]: 4.62 log
Activity (MDA-MB-231 [31]): 0.72%
Activity [9]: 5.09 log
Ratio IC50 [10]: >238.1
pIC50 [11]: < 4.00
pIC50 (HUVEC): 5.03
Activity (MDA-MB-231 [32]): 25.1%
Activity (MDA-MB-231 [33]): 38.6%
Activity (MDA-MB-231 [34]): 18.1%
Drug uptake [35]: Active
pIC50 (MDA-MB-231 [12]): 6.38
Drug uptake [36]: Active
Activity (MDA-MB-231 [37]): inactive
Activity (MDA-MB-231 [38]): 0.013%
pIC50 (4T1): 6.52
selectivity ratio [13]: 22.2
Activity [14]: 443 nm
Drug uptake [39]: Active
pIC50 [15]: < 4.00

Oc1cccc(-c2c3nc(c(-c4cccc(O)c4)c4ccc([nH]4)c(-c4cccc(O)c4)c4nc(c(-c5cccc(O)c5)c5ccc2[nH]5)CC4)C=C3)c1 [TEMOPORFIN]
pIC50 [1]: 4.42
selectivity ratio [3]: > 66.7
Ratio IC50 [6]: 760.2
Ratio IC50 [10]: 38.41
pIC50 [11]: 4.48
pIC50 (HUVEC): 5.82
pIC50 (MDA-MB-231 [12]): 6.06
pIC50 (4T1): 7.30
selectivity ratio [13]: 1.72
pIC50 [15]: < 4.00
